# Experimental data reported in patent US20230348394A1, “COMPOSITIONS AND METHODS FOR TREATING MUSCULAR DYSTROPHIES” (The Regents of the University of California, priority 2020, published 2023).
# System: SSPN gene expression
# Test: SSPN gene expression (qPCR) in dystrophin-deficient H2K mdx myotubes
# Format: cell-based, murine
# Settings: 0.5 to 50 μM
# Description: C2C12 cells (American Type Culture Collection) were grown at 37° C. with 5% CO2 in growth medium containing DMEM (Gibco) with 20% FBS (Sigma-Aldrich). Upon reaching 90-100% confluency, myoblasts were induced to differentiate by replacing the medium with differentiation medium consisting of DMEM with 2% horse serum (Sigma-Aldrich). Conditionally immortalized H2K WT and mdx myoblasts with a nonsense mutation in exon 23 of dystrophin were a gift from Terrance Partridge, Ph.D. (Children's National Medical Center, Washington, D.C.). […]
# RNA from myotubes treated for 48 hrs was extracted from cells using Trizol-based (Thermo Fisher Scientific) phase separation, Chomczynski et al., Biotechniques. […] RNA concentrations were determined using a NanoDrop 1000 (Thermo Fisher Scientific) and 750 ng of RNA in a 20 Id reaction was reverse transcribed using iScript cDNA synthesis (Bio-Rad) with the following cycling conditions: 25° C. for 5 mins, 42° C. for 30 mins, 85° C. for 5 mins. […] For qPCR of human samples, TaqMan assays were used to quantify SSPN (assay ID Hs01025520m 1) and ACTB (assay ID Hs01060665_g1) with the following reaction conditions: 50° C. for 2 mins, 95° C. for 10 mins, 40 cycles of 95° C. for 15 seconds and 62° C. for 1 minute. […]
structure (smiles),measurement,value
CCN(CC)c1ccc2cc(C(=O)Nc3ccc(C(=O)N4CCCCCC4)cc3)c(=O)oc2c1 [OT-9],concentration at which the concentration-dependent SSPN mRNA response peaked,5.5 µM
